{"source": "patent US4889917A", "about": "“Peptide” (Agency of Industrial Science Technology, Ministry of …, priority 1987, dated 1989)", "system": "human antibody to the nicotinic acetylcholine receptor", "assay": "Adsorption of human anti-nicotinic acetylcholine receptor antibody from myasthenia gravis patient serum; residual antibody in supernatant by Con A method (toxin binding inhibition)", "method": "In 0.5 ml of serum from a patient of myasthenia gravis, 50 mg of the adsorbent obtained in Referential Example 3(a) (cellulose particles having the peptide immobilized thereon) and not yet subjected to any heat treatment or the adsorbent obtained in Referential Example 3(b) and subjected to a heat treatment was suspended at a temperature of 37° C. for three hours. The resultant suspension was centrifuged to separate a supernatant. The supernatant was tested for the concentration of the human antibody to the nicotinic acetylcholine receptor by the Con A method [Protein, Nucleic Acid and Enzyme, vol. […] To be specific, the specimen was brought into contact sequentially with the nicotinic acetylcholine receptor and a radioisotope-labelled α-bungartoxin. The treated specimen was passed through a column packed with Sepharose having immobilized thereon concanavalin (Con A). By measuring the radioactivity of the column, the amount of the human antibody which was contained in the specimen and which inhibited the union of the α-bungarotoxin with the nicotinic acetylcholine receptor was determined in terms of toxin binding inhibition activity (ratio of decrease of the radioactivity of the column)."}
{"smiles": "NCC(=O)O", "note": "[Glycine, glycine]", "values": [{"measurement": "Toxine binding inhibition activity", "setting": "as E1, adsorbent heat treated at 121° C. for 20 minutes", "value": 45, "unit": "%"}, {"measurement": "Toxine binding inhibition activity", "setting": "supernatant of 0.5 ml myasthenia gravis serum after 50 mg adsorbent (substance immobilized on cellulose particles), 37° C., three hours, no heat treatment, lower = more antibody adsorbed", "value": 44, "unit": "%"}]}
